Test [1] concerns the target T1, JAK2 (Homo sapiens, UniProt O60674).
T1 construct: host or cells: baculovirus expression system
Description: Recombinant Human JAK2 Kinase Assay (TRF). The settings on record: read-out: JAK2 Potency. It counts as biochemical. Summed up:
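Baculovirus-expressed JAK2 (15 ng/ml) phosphorylated a biotinylated 15-mer peptide captured on Neutravidin, in 20 mM HEPES pH 7.2, 0.2 μM ATP, 1 mM MnCl2, 0.1% BSA, 2.5% DMSO final, 20 min at room temperature. Phosphoproduct detected by time-resolved fluorescence with Eu-N1-labelled PY100 antibody.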

Test [2] has as its target T2, ALK (Homo sapiens, UniProt Q9UM73).
T2 construct: host or cells: baculovirus expression system
Description: ALK Kinase Assay (ELISA/TRF, PLC-γ substrate). It counts as biochemical. The settings on record: read-out: ALK Potency. Summed up:
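PLC-γ coat 10 μg/mL in TBS; ALK 30 ng/ml added to start; 37° C, 15 min; Eu-N1 PT66 antibody detection (TRF). IC50: % inhibition vs log10 [cpd], variable-slope sigmoidal fit.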

Setting [3] is: JAK2 kinase inhibition, 0.2 μM ATP.
The mark [4] stands for this setting: ALK kinase inhibition, 1 μM ATP.

Structures are written as SMILES. Where two headings read alike, the source gives them in different places.

T1 sequence (O60674 whole entry): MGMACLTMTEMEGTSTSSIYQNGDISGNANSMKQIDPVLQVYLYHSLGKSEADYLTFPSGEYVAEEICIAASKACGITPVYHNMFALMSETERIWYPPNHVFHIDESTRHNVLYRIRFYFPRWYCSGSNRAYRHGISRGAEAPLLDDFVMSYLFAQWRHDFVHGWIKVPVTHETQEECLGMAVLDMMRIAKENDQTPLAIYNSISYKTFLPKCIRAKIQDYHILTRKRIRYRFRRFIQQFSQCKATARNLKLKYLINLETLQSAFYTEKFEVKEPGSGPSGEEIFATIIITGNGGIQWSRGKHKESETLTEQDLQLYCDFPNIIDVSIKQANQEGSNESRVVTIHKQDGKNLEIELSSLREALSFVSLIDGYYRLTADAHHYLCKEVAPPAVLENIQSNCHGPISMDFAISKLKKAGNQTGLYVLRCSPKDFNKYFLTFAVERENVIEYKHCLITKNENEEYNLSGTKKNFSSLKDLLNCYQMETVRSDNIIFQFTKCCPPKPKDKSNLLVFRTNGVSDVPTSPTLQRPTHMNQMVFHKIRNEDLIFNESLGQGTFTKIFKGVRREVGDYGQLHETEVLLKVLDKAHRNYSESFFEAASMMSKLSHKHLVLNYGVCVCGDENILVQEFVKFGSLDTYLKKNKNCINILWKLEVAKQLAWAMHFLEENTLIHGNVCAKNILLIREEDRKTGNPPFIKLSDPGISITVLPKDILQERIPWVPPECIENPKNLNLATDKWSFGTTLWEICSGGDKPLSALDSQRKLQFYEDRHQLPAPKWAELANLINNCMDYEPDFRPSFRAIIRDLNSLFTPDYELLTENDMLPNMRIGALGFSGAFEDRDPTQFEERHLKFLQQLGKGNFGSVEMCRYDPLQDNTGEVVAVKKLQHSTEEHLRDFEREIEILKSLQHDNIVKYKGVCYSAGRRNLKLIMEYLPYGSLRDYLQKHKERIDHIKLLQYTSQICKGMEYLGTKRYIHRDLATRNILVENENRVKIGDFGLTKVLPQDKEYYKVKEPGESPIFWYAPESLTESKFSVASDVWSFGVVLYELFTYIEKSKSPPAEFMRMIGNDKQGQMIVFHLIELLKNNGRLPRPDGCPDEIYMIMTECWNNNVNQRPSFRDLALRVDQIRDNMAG
T2 sequence (Q9UM73 19-1620): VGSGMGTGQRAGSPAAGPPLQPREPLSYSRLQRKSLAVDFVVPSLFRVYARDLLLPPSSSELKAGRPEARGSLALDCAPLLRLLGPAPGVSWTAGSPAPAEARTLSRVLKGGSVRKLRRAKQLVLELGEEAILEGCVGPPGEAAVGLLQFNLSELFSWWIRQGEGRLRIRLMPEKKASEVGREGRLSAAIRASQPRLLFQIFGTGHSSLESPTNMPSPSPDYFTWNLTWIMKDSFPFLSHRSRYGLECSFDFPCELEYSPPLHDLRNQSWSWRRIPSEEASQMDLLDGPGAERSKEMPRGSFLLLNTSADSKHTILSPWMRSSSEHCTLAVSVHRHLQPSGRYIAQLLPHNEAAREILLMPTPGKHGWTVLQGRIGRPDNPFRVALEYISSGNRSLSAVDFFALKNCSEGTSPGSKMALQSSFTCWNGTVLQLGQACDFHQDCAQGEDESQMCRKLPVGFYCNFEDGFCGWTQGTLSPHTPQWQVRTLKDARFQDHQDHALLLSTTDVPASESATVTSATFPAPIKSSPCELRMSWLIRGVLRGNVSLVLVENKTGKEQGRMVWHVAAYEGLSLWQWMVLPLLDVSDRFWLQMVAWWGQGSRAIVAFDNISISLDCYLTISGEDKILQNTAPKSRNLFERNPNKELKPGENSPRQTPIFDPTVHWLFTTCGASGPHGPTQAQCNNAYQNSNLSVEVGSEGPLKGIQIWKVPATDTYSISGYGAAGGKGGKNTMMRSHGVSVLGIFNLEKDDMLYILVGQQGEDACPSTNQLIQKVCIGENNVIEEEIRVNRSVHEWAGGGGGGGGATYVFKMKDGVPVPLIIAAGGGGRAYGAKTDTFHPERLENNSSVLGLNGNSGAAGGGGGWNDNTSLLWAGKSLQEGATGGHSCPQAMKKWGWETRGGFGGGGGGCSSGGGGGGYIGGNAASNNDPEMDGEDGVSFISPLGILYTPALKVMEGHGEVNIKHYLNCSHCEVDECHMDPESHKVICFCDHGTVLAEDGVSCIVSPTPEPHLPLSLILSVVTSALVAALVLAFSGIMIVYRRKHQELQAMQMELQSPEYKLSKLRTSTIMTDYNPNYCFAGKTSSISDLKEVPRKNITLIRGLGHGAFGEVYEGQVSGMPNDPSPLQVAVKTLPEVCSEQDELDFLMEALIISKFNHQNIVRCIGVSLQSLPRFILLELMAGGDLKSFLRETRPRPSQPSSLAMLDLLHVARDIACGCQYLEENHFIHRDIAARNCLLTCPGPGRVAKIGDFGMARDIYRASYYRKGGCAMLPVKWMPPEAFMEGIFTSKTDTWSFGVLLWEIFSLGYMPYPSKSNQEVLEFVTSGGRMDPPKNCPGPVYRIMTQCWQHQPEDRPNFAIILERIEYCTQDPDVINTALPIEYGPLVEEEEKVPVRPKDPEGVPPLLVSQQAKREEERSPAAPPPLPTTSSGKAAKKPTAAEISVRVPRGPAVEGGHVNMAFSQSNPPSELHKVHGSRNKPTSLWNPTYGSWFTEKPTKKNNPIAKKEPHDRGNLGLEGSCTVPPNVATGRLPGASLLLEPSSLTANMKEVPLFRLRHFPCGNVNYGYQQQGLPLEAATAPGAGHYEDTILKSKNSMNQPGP

Take `COc1ccccc1-c1ccc2cnc(Nc3ccc4nc(C(C)(C)C)[nH]c4c3)nn12` [Example 1352, (2-tert-Butyl-3H-benzimidazol-5-yl)-[7-(2-methoxy-phenyl)-pyrrolo[2,1-f][1,2,4]triazin-2-yl]-amine]: the IC50 in test [1] (setting [3]) was less than 0.1 µM; in test [2] (setting [4]) it was 0.1 to 1 µM.

For `COc1cccc(F)c1-c1ccc2cnc(Nc3ccc(C4CCN(CC(N)=O)CC4)cc3)nn12` [Example 1353, 2-(4-{4-[7-(2-Fluoro-6-methoxy-phenyl)-pyrrolo[2,1-f][1,2,4]triazin-2-ylamino]-phenyl}-piperidin-1-yl)-acetamide], the IC50 in test [1] (setting [3]) and in test [2] (setting [4]) was less than 0.1 µM each time.

For `CN(c1ccccc1-c1ccc2cnc(Nc3cccnc3)nn12)S(C)(=O)=O` [Example 1361, N-Methyl-N-{2-[2-(pyridin-3-ylamino)-pyrrolo[2,1-f][1,2,4]triazin-7-yl]-phenyl}-methanesulfonamide], the values for the IC50 in test [1] (setting [3]) and in test [2] (setting [4]) were less than 0.1 µM and 1 to 10 µM, respectively.

In the case of `CN(c1ccccc1-c1ccc2cnc(Nc3nccs3)nn12)S(C)(=O)=O` [Example 1362, N-Methyl-N-{2-[2-(thiazol-2-ylamino)-pyrrolo[2,1-f][1,2,4]triazin-7-yl]-phenyl}-methanesulfonamide], the IC50 is 0.1 to 1 µM in test [1] (setting [3]) and 1 to 10 µM in test [2] (setting [4]).

Consider `CC(=O)Nc1cccc(Nc2ncc3ccc(-c4cccc(NS(C)(=O)=O)c4)n3n2)c1` [Example 1363, N-{3-[7-(3-Methanesulfonylamino-phenyl)-pyrrolo[2,1-f][1,2,4]triazin-2-ylamino]-phenyl}-acetamide], for which the IC50 in test [1] (setting [3]) is less than 0.1 µM; in test [2] (setting [4]), 1 to 10 µM.

Turning to `CN(c1ccccc1-c1ccc2cnc(Nc3ccncc3)nn12)S(C)(=O)=O` [Example 1364, N-Methyl-N-{2-[2-(pyridin-4-ylamino)-pyrrolo[2,1-f][1,2,4]triazin-7-yl]-phenyl}-methanesulfonamide], the IC50 is less than 0.1 µM in test [1] (setting [3]) and 1 to 10 µM in test [2] (setting [4]).

Regarding `CC(=O)N1CCCC(C)(C)c2ccc(Nc3ncc4ccc(-c5cccc(NS(C)(=O)=O)c5)n4n3)cc21` [Example 1365, N-{3-[2-(1-Acetyl-5,5-dimethyl-2,3,4,5-tetrahydro-1H-benzo[b]azepin-8-ylamino)-pyrrolo[2,1-f][1,2,4]triazin-7-yl]-phenyl}-methanesulfonamide], the IC50 in test [1] (setting [3]) is less than 0.1 µM; in test [2] (setting [4]) it was 1 to 10 µM.

Consider `CC(=O)N1CCCC(C)(C)c2ccc(Nc3ncc4ccc(-c5ccccc5N(C)S(C)(=O)=O)n4n3)cc21` [Example 1366, N-{2-[2-(1-Acetyl-5,5-dimethyl-2,3,4,5-tetrahydro-1H-benzo[b]azepin-8-ylamino)-pyrrolo[2,1-f][1,2,4]triazin-7-yl]-phenyl}-N-methyl-methanesulfonamide], for which the IC50 in test [1] (JAK2 Kinase Inhibition) is less than 0.1 µM; in test [2] (ALK Kinase Inhibition), 0.1 to 1 µM.

Regarding `CC(=O)N1CCc2ccc(Nc3ncc4ccc(-c5cccc(NS(C)(=O)=O)c5)n4n3)cc21` [Example 1367, N-{3-[2-(1-Acetyl-2,3-dihydro-1H-indol-6-ylamino)-pyrrolo[2,1-f][1,2,4]triazin-7-yl]-phenyl}-methanesulfonamide], the results for the IC50 in test [1] (JAK2 Kinase Inhibition) and in test [2] (ALK Kinase Inhibition) were less than 0.1 µM and 1 to 10 µM, respectively.

With `CC(=O)Nc1cccc(Nc2ncc3ccc(-c4cccc(S(=O)(=O)NC(C)(C)C)c4)n3n2)c1` [Example 1368, N-{3-[7-(3-tert-Butylsulfamoyl-phenyl)-pyrrolo[2,1-f][1,2,4]triazin-2-ylamino]-phenyl}-acetamide], the IC50 in test [1] (JAK2 Kinase Inhibition) is less than 0.1 µM; in test [2] (ALK Kinase Inhibition), 0.1 to 1 µM.

Turning to `CC(=O)N1CCCC(C)(C)c2ccc(Nc3ncc4ccc(-c5cccc(S(=O)(=O)NC(C)(C)C)c5)n4n3)cc21` [Example 1369, 3-[2-(1-Acetyl-5,5-dimethyl-2,3,4,5-tetrahydro-1H-benzo[b]azepin-8-ylamino)-pyrrolo[2,1-f][1,2,4]triazin-7-yl]-N-tert-butyl-benzenesulfonamide], the IC50 in test [1] (JAK2 Kinase Inhibition) is less than 0.1 µM; in test [2] (ALK Kinase Inhibition) it was 1 to 10 µM.

Consider `COc1ccc(Nc2ncc3ccc(-c4ccccc4N(C)S(C)(=O)=O)n3n2)cc1N1CCCC1=O` [Example 1370, N-(2-{2-[4-Methoxy-3-(2-oxo-pyrrolidin-1-yl)-phenylamino]-pyrrolo[2,1-f][1,2,4]triazin-7-yl}-phenyl)-N-methyl-methanesulfonamide], for which the values for the IC50 in test [1] (JAK2 Kinase Inhibition) and in test [2] (ALK Kinase Inhibition) were less than 0.1 µM and 0.1 to 1 µM, respectively.

Consider `CN(c1ccccc1-c1ccc2cnc(Nc3ccc4c(c3)NC(=O)C(C)(C)O4)nn12)S(C)(=O)=O` [Example 1371, N-{2-[2-(2,2-Dimethyl-3-oxo-3,4-dihydro-2H-1,4-benzoxazin-6-ylamino)-pyrrolo[2,1-f][1,2,4]triazin-7-yl]-phenyl}-N-methyl-methanesulfonamide], for which the IC50 is less than 0.1 µM in test [1] (JAK2 Kinase Inhibition) and 0.1 to 1 µM in test [2] (ALK Kinase Inhibition).

Take `CC(=O)N1CCc2ccc(Nc3ncc4ccc(-c5cccc(S(=O)(=O)NC(C)(C)C)c5)n4n3)cc21` [Example 1372, 3-[2-(1-Acetyl-2,3-dihydro-1H-indol-6-ylamino)-pyrrolo[2,1-f][1,2,4]triazin-7-yl]-N-tert-butyl-benzenesulfonamide]: the IC50 in test [1] (JAK2 Kinase Inhibition) is less than 0.1 µM; in test [2] (ALK Kinase Inhibition), greater than 10 µM.

Regarding `CC(=O)N1CCOc2ccc(Nc3ncc4ccc(-c5cccc(S(=O)(=O)NC(C)(C)C)c5)n4n3)cc21` [Example 1373, 3-[2-(4-Acetyl-3,4-dihydro-2H-benzo[1,4]oxazin-6-ylamino)-pyrrolo[2,1-f][1,2,4]triazin-7-yl]-N-tert-butyl-benzenesulfonamide], the IC50 in test [1] (JAK2 Kinase Inhibition) and in test [2] (ALK Kinase Inhibition) was less than 0.1 µM each time.

Regarding `CC(=O)N1CCOc2ccc(Nc3ncc4ccc(-c5ccccc5N(C)S(C)(=O)=O)n4n3)cc21` [Example 1374, N-{2-[2-(4-Acetyl-3,4-dihydro-2H-1,4-benzoxazin-6-ylamino)-pyrrolo[2,1-f][1,2,4]triazin-7-yl]-phenyl}-N-methyl-methanesulfonamide], the IC50 is less than 0.1 µM in test [1] (JAK2 Kinase Inhibition) and 0.1 to 1 µM in test [2] (ALK Kinase Inhibition).

For the compound `CC(=O)Nc1cccc(Nc2ncc3ccc(-c4ccccc4N(C)S(C)(=O)=O)n3n2)c1` [Example 1375, N-(3-{7-[2-(Methanesulfonyl-methyl-amino)-phenyl]-pyrrolo[2,1-f][1,2,4]triazin-2-ylamino}-phenyl)-acetamide], the IC50 in test [1] (JAK2 Kinase Inhibition) was less than 0.1 µM; in test [2] (ALK Kinase Inhibition), 0.1 to 1 µM.

In the case of `CC(C)(C)NS(=O)(=O)c1cccc(-c2ccc3cnc(Nc4ccc5c(c4)NC(=O)C(C)(C)O5)nn23)c1` [Example 1376, N-tert-Butyl-3-[2-(2,2-dimethyl-3-oxo-3,4-dihydro-2H-1,4-benzoxazin-6-ylamino)-pyrrolo[2,1-f][1,2,4]triazin-7-yl]-benzenesulfonamide], the values for the IC50 in test [1] (JAK2 Kinase Inhibition) and in test [2] (ALK Kinase Inhibition) were less than 0.1 µM and 1 to 10 µM, respectively.

Turning to `COc1ccc(Nc2ncc3ccc(-c4cccc(S(=O)(=O)NC(C)(C)C)c4)n3n2)cc1N1CCCC1=O` [Example 1377, N-tert-Butyl-3-{2-[4-methoxy-3-(2-oxo-pyrrolidin-1-yl)-phenylamino]-pyrrolo[2,1-f][1,2,4]triazin-7-yl}-benzenesulfonamide], the values for the IC50 in test [1] (JAK2 Kinase Inhibition) and in test [2] (ALK Kinase Inhibition) were less than 0.1 µM and 0.1 to 1 µM, respectively.

For the compound `CC(=O)Nc1cccc(Nc2ncc3ccc(-c4cnn(C)c4)n3n2)c1` [Example 1378, N-{3-[7-(1-Methyl-1H-pyrazol-4-yl)-pyrrolo[2,1-f][1,2,4]triazin-2-ylamino]-phenyl}-acetamide], the IC50 was less than 0.1 µM in test [1] (JAK2 Kinase Inhibition) and 1 to 10 µM in test [2] (ALK Kinase Inhibition).

Take `CCN1C(=O)CCC(C)(C)c2ccc(Nc3ncc4ccc(-c5cnn(C)c5)n4n3)cc21` [Example 1379, 1-Ethyl-5,5-dimethyl-8-[7-(1-methyl-1H-pyrazol-4-yl)-pyrrolo[2,1-f][1,2,4]triazin-2-ylamino]-1,3,4,5-tetrahydro-benzo[b]azepin-2-one]: the figures for the IC50 in test [1] (JAK2 Kinase Inhibition) and in test [2] (ALK Kinase Inhibition) were less than 0.1 µM and 0.1 to 1 µM, respectively.

As for `CC(=O)Nc1cc(Nc2ncc3ccc(-c4cnn(C)c4)n3n2)ccc1C(C)(C)C` [Example 1380, N-{2-tert-Butyl-5-[7-(1-methyl-1H-pyrazol-4-yl)-pyrrolo[2,1-f][1,2,4]triazin-2-ylamino]-phenyl}-acetamide], the IC50 in test [1] (JAK2 Kinase Inhibition) was less than 0.1 µM; in test [2] (ALK Kinase Inhibition) it was 1 to 10 µM.

As to `CC(=O)N1CCCC(C)(C)c2ccc(Nc3ncc4ccc(-c5cnn(C)c5)n4n3)cc21` [Example 1381, 1-{5,5-Dimethyl-8-[7-(1-methyl-1H-pyrazol-4-yl)-pyrrolo[2,1-f][1,2,4]triazin-2-ylamino]-2,3,4,5-tetrahydro-benzo[b]azepin-1-yl}-ethanone], the figures for the IC50 in test [1] (JAK2 Kinase Inhibition) and in test [2] (ALK Kinase Inhibition) were less than 0.1 µM and 1 to 10 µM, respectively.

Turning to `CC(=O)Nc1cccc(Nc2ncc3ccc(-c4ccccc4NS(C)(=O)=O)n3n2)c1` [Example 1382, N-{3-[7-(2-Methanesulfonylamino-phenyl)-pyrrolo[2,1-f][1,2,4]triazin-2-ylamino]-phenyl}-acetamide], the IC50 was less than 0.1 µM in test [1] (JAK2 Kinase Inhibition) and 1 to 10 µM in test [2] (ALK Kinase Inhibition).

Consider `CC(C)(C)NS(=O)(=O)c1cccc(-c2ccc3cnc(Nc4cccc(N5CCCC5=O)c4)nn23)c1` [Example 1383, N-tert-Butyl-3-{2-[3-(2-oxo-pyrrolidin-1-yl)-phenylamino]-pyrrolo[2,1-f][1,2,4]triazin-7-yl}-benzenesulfonamide], for which the figures for the IC50 in test [1] (JAK2 Kinase Inhibition) and in test [2] (ALK Kinase Inhibition) were less than 0.1 µM and 1 to 10 µM, respectively.

In the case of `CNC(=O)c1cccc(Nc2ncc3ccc(-c4cccc(S(=O)(=O)NC(C)(C)C)c4)n3n2)c1` [Example 1384, 3-[7-(3-tert-Butylsulfamoyl-phenyl)-pyrrolo[2,1-f][1,2,4]triazin-2-ylamino]-N-methyl-benzamide], the values for the IC50 in test [1] (JAK2 Kinase Inhibition) and in test [2] (ALK Kinase Inhibition) were less than 0.1 µM and 1 to 10 µM, respectively.

Values taken from patent US8471005B2 (Cephalon, Inc., priority 2008, dated 2013).
